Where no end group is shown, it is not given here.

In general, % inhibition refers to the percentage by which the read-out fell short of the control. Read a low % inhibition as a response near the control. As usually defined, the viability is the share of living cells, or the viability signal relative to a control.

Data set [1] deals with Pseudomonas aeruginosa. In words: Pseudomonas aeruginosa growth inhibition assay. To be noted: Mueller-Hinton Broth, read visually, peptide 10 micrograms per ml. In kind it is cell-based.
The nature of data set [2]: Cytotoxicity (MTS cell viability) in the HIV-1 assay. The settings on record: human, CEM-SS cells.
Data set [3] has as its system Streptococcus pneumoniae. In words: Streptococcus pneumoniae growth inhibition assay. To be noted: Mueller-Hinton Broth, read visually, peptide 10 micrograms per ml. In kind it is cell-based.
The nature of data set [4]: in vitro. The settings on record: human.
Data set [5] is described as follows: Cytotoxicity testing in MRC-5 cells (CellTiter 96). It counts as cell-based. The settings on record: human, MRC-5 cells (embryonal lung fibroblasts), 6 days incubation, read-out: % Cell viability. As for the experimental part: For cytotxicity testing, MRC-5 cells were seeded at 2,500 cells/well in 96 well plates using growth medium. […] The following day, peptide was added and tested in duplicates. After a 6 days incubation period, cell viability was measured using CellTiter 96 Solution (Promega). Plates were incubated for additional 4 hours at 37° C.

Data set [6] has as its system MRSA. The settings on record: Mueller-Hinton Broth, read visually, peptide 10 micrograms per ml.
Data set [7] has as its system CEM-SS cells. Put plainly: Cytotoxicity (MTS cell viability) in the HIV-1 assay. The settings on record: MTS, peptide 10 micrograms per ml.
Data set [8] concerns HIV-1IIIB. In words: HIV-1 antiviral CPE assay in CEM-SS cells (MTS). To be noted: 6 days post-infection, peptide 10 micrograms per ml.

As to MQMKKVLDS-OH [AIP-1], the “% inhibition” value in data set [1], in data set [3] and in data set [6] was 0.0% throughout. Moreover, the viability at 10 micrograms per ml in data set [2] is 100%. This compound registered a viability at 144 h, 10 micrograms per ml in data set [4] of 100%. In addition, the viability at 144 h in data set [5] is 100%.
`Cc1cn([C@H]2C[C@H](N=[N+]=[N-])[C@@H](CO)O2)c(=O)[nH]c1=O` [AZT]: the “% Cell viability” value in data set [7] is 97%. Also, the “% CPE reduction in HIV-1 infected CEM-SS cells” value in data set [8] is 99%.
For `CC(C)(C)NC(=O)[C@@H]1CN(Cc2cccnc2)CCN1C[C@@H](O)C[C@@H](Cc1ccccc1)C(=O)N[C@H]1c2ccccc2C[C@H]1O` [Indinavir], the “% Cell viability” value in data set [7] amounted to 93%.

The values above are taken from patent US20100234306A1, “USE OF A PEPTIDE AS A THERAPEUTIC AGENT” (priority 2007, published 2010).
